Reference: paper PMC4945996 (Journal of the American Chemical Society, 2016)
Several values for one entry are separate records, joined by “and”; a condition that tells them apart may be missing. Equal values may be shown once. Read-outs that look alike come from different tables or passages of the source.

Experiments:
human MIF [1] = molecular target: T1, human MIF (Homo sapiens, UniProt P14174); experiment: HPP tautomerase assay; assay type: biochemical; settings: for Ki: tautomerase inhibition, HPP substrate, pH 6–6.1
T1 sequence (P14174 2-115 limits assumed): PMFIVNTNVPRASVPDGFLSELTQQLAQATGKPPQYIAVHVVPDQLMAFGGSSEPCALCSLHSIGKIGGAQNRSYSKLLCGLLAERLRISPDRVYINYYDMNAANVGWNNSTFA

human MIF [2] = molecular target: T1, human MIF; experiment: Competitive fluorescence polarization; assay type: binding; settings: for Kd: 0.004 μM tracer B, […] MIF, pH 7.4, Kd from IC50 via eq 1
MIF [3] = settings: cited from earlier work
MIF [4] = settings: DOPA assay; cited from earlier work
MIF binding to CD74 = settings: blocking binding of MIF to CD74; cited from earlier work
MIF [5] = settings: covalent inhibitor: result is time-dependent; cited from earlier work

## O=C(O)c1ccc(Oc2cn(-c3ccc(O)c(F)c3)nn2)cc1 [5b]
Human MIF [1]
  Ki: 1700 nM

## COc1ccc(N2Cc3ccc(O)cc3OC2=O)cc1 [NVS-2]
Human MIF [1]
  Ki: ~30 nM and 30 nM
Human MIF [1]; from Ki values
  fold more potent than (R)-ISO-1: roughly 1000 fold
Human MIF [2]
  fold stronger binding than NVS-6: 3 fold
Human MIF [2]; (−2.3RT/HAC) log Kd
  ligand efficiency: 0.50
MIF [3]; HPP tautomerase assay
  IC50: 20 nM
MIF [3]; previously reported
  IC50: 20 nM

## O=c1c(-c2ccc(O)c(O)c2)coc2cc(O)ccc12 [Orita-13]
MIF [4]
  Ki: 38 nM

## O=C1Oc2cc(O)ccc2CN1c1ccc(O)cc1 [NVS-6]
Human MIF [1]
  Ki: 185 nM
Human MIF [2]; Kd
  Kd: 159 nM

## O=C1Oc2cc(O)ccc2CN1C1CCCCC1 [NVS-1]
Human MIF [1]
  Ki: 569 nM
Human MIF [2]
  fold weaker binding (cyclohexyl analogue vs NVS-2): ca. 10 fold
Human MIF [2]; Kd
  Kd: 456 nM

## COc1cc(-c2ccc(N=Nc3ccc4c(S(=O)(=O)O)cc(S(=O)(=O)O)c(N)c4c3O)c(OC)c2)ccc1N=Nc1ccc2c(S(=O)(=O)O)cc(S(=O)(=O)O)c(N)c2c1O [PSB]
MIF binding to CD74
  IC50: 810 nM

## Ic1cc(-c2ccccc2)ncn1 [4-IPP]
Human MIF [2]
  Kd: 446 nM
Human MIF [2]; FP monitored for 1 h after the 20 min incubation
  time dependence of FP results: time dependent
MIF [5]
  IC50: 4500 nM

## COc1ccc(Oc2cn(-c3ccc(O)c(F)c3)nn2)cc1 [5a]
Human MIF [1]
  Ki: 1900 nM
